# Experimental data published in US4439460A, “Dipeptide sweetener sulfate and sulfonate salts” (G. D. Searle & Co., priority 1982, dated 1984).
# Where a SMILES comes first, the peptide text is derived from it.
# Assays:
# [1] = Rate of dissolution studies in beverage media; assay type: physicochemical; conditions: for Media Dissolution Times, medium 4: ambient temperature coffee (80 ml); for Media Dissolution Times, medium 4 / Media Dissolution Times, medium 2 / Media Dissolution Times, medium 3: with stirring; for Media Dissolution Times, medium 4 / Media Dissolution Times, medium 1 / Media Dissolution Times, medium 2 / Media Dissolution Times, medium 3: salt equimolar with 57 mg APM; for Media Dissolution Times, medium 1: refrigerated carbonated water (240 ml), without stirring; for Media Dissolution Times, medium 2: refrigerated lemonade with no sugar (240 ml); for Media Dissolution Times, medium 3: refrigerated coffee (80 ml)
# Protocol: Samples of the salts of Examples 1, 2 and the APM hydrochloride and corresponding bisulfate and dihydrogen phosphate salts were employed to determine relative dissolution rates in beverage media. The amount of salt used in each instance was calculated to be equimolar with 57 mg of APM. The tests were conducted in four types of liquid beverage media; (1) refrigerated carbonated water (240 ml), (2) refrigerated lemonade without sugar (240 ml), (3) refrigerated coffee (80 ml), (4) coffee at ambient temperature (80 ml). The dissolution rates in medium 1 were measured without stirring and the rates in 2, 3 and 4 were measured with stirring. Dissolution was deemed complete when solid particles or a cloudy appearing medium were no longer present.
# [2] = Thermal stability examination: oven at 170° C., HPLC analysis; assay type: physicochemical; conditions: for % Degradation, 7 Minutes (170° C.) / % Degradation, 15 Minutes (170° C.) / Physical Appearance after 25 Minutes at 170° C. / % Degradation, 25 Minutes (170° C.): oven 170° C.; for % Degradation, 7 Minutes (170° C.) / % Degradation, 15 Minutes (170° C.) / % Degradation, 25 Minutes (170° C.): HPLC; for degradation: after seven, fifteen or twenty-five minutes heating at about 170° C.
# Protocol: Samples of the salts of Examples 1 and 2 having weights equivalent to about 40 mg of APM and reference samples (40 mg) of free base aspartylphenylalanine methyl ester (APM) and the corresponding hydrochloride dihydrogen phosphate (H2 PO4) and bisulfate (HSO4) salts having weights equivalent to about 40 mg APM were placed in individual 10 ml beakers and put in an oven pre-heated to 170° C. The samples were allowed to bake for predetermined times (7, 15 and 25 minutes) after which they were removed from the oven and analyzed by HPLC using the foregoing HPLC methods.
# [3] = Shelf life determination: accelerated storage, HPLC assay; assay type: physicochemical
# Protocol: Two sets of samples of the APM sulfate salt of Example 1, APM hydrochloride and APM each having a weight equivalent to […] APM were placed in ovens which contained an open beaker of water. The first set of samples was heated at 70° and 100 percent humidity for 14.7 days. The second set of samples was heated at 85° and atmospheric humidity for 14.7 days. The samples were periodically analyzed by the HPLC method as described above in order to determine percent decomposition.
# [4] = Taste of baked dipeptide sweetened yellow cakes; conditions: single blind conditions
# Protocol: A taste test of the baked dipeptide sweetened yellow cakes can also be conducted under standard single blind conditions.
# (§1) Yellow cakes were baked following a standard recipe, but substituting a dipeptide sweetener or its salt and Maltrin M-100 (a modified maltodextrin starch bulking agent) for sugar. The liquid ingredients were creamed together then folded into a sifted mixture of the dry ingredients. The resulting dough was placed in a greased 8-inch cake pan and baked at 350° for 40 minutes. Three cakes were baked in this manner; cake 1 contained (APM-H)2 SO4, cake 2 contained APM-HCl, cake 3 contained APM.
# [5] = Thermal stability studies in baked cake: HPLC of core samples; assay type: physicochemical; conditions: for sweetener recovery: typical cake test, baked at 350° Fahrenheit for about thirty to forty-five minutes
# Protocol: In this test sweetened yellow cakes are prepared following well-known procedures and using the appropriate ingredients but substituting dipeptide sweetener for sugar. Use of examples of salts of the invention and reference dipeptides and salts such as the hydrochloride will produce eight-inch yellow cakes which are ready for sweetener content comparison. The cakes are typically baked at 350° Fahrenheit (about 175° C.) for about thirty to forty-five minutes. Taking core sections of the sample cakes and analyzing for dipeptide sweetener content allows determination of the percent degradation of the form of the dipeptide sweetener used. In a typical thermal stability cake test, a cake baked with the sulfate salt of the invention will have about […] more dipeptide sweetener in it than a cake baked with the hydrochloride salt; compare, for example, about 34 percent sweetener recovery for the sulfate with about 25 percent for the hydrochloride.
# as §1
# The liquid ingredients included milk (193 g), shortening (54 g), egg (53 g, 1 egg), vanilla (3.6 g); the dry ingredients included flour (167 g), baking powder (6.9 g), salt (3.4 g), maltrin M-100 (126.5 g) dipeptide sweetener salt: (APM-H)2 SO4 (cake 1) (1.2 g), APM-HCl (cake 2) (1.2 g), APM (cake 3) (1.0 g).
# Core samples were taken from each of the three cakes and the samples were analyzed by HPLC methods as described in Example 1.
Compound,"Media Dissolution Times, medium 4 [1]","% Degradation, 7 Minutes (170° C.) [2]","% Degradation, 15 Minutes (170° C.) [2]",Physical Appearance after 25 Minutes at 170° C. [2],"% Degradation, 25 Minutes (170° C.) [2]","HPLC Assay (% composition) APM, 6.8 days ([3]; 70°, 100 percent humidity)","HPLC Assay (% composition) DKP, 6.8 days ([3]; 70°, 100 percent humidity)","APM % Initial (APM remaining after 14.7 days relative to the initial APM) ([3]; 70°, 100 percent humidity)","HPLC Assay (% composition) AP, 14.7 days ([3]; 70°, 100 percent humidity)","HPLC Assay (% composition) APM, 14.7 days ([3]; 70°, 100 percent humidity)","HPLC Assay (% composition) APM, 6.8 days ([3]; 85° C., atmospheric humidity)","HPLC Assay (% composition) DKP, 6.8 days ([3]; 85° C., atmospheric humidity)","APM % Initial (APM remaining after 14.7 days relative to the initial APM) ([3]; 85° C., atmospheric humidity)","HPLC Assay (% composition) AP, 14.7 days ([3]; 85° C., atmospheric humidity)","HPLC Assay (% composition) APM, 14.7 days ([3]; 85° C., atmospheric humidity)","HPLC Assay (% composition) DKP, 14.7 days ([3]; 85° C., atmospheric humidity)","HPLC Assay (% composition) APM, Initial ([3]; initial, before storage)",degradation [2],"Media Dissolution Times, medium 1 [1]","Media Dissolution Times, medium 2 [1]",other results
COC(=O)[C@H](Cc1ccccc1)NC(=O)[C@@H](N)CC(=O)O.O=P(O)(O)O [D] (H-Asp-Phe-OMe),600 s,0.1%,60.6%,yellow powder,86.6%,,,,,,,,,,,,,,,,
"COC(=O)[C@H](Cc1ccccc1)NC(=O)[C@@H](N)CC(=O)O [A, aspartylphenylalanine methyl ester] (H-Asp-Phe-OMe)",,0%,22.2%,light-gray material,87.6%,95.3%,1.1%,95.9%,0.21%,92.6%,95.2%,1.6%,94.9%,.20%,91.7%,2.0%,96.6%,≤ 85%,,,"HPLC Assay (% composition) DKP, 14.7 days ([3]; 70°, 100 percent humidity): 1.2%; HPLC Assay (% composition) DKP, Initial ([3]; initial, before storage): 1.0%; cake sweetness, panel taste testing [4]: little sweetness and a flat taste"
COC(=O)[C@H](Cc1ccccc1)NC(=O)[C@@H](N)CC(=O)O.CS(=O)(=O)O [Ex. 2] (H-Asp-Phe-OMe),167 s,0.0%,0.5%,off white powder,28.0%,,,,,,,,,,,,,about 30%,168 s,250 s,
"COC(=O)[C@H](Cc1ccccc1)NC(=O)[C@@H](N)CC(=O)O.COC(=O)[C@H](Cc1ccccc1)NC(=O)[C@@H](N)CC(=O)O.O=S(=O)(O)O [Ex. 1, Bis(hydrogen aspartylphenylalanine methyl ester) sulfate] (H-Asp-Phe-OMe)",22 s,1.3%,0%,white cryst. powder,5.5%,83.9%,,96.7%,.20%,82.1%,83.0%,0.15%,95.4%,.20%,80.9%,.08%,84.8%,less than 10%,22 s,About 0 seconds,"dissolution rate relative to the corresponding hydrochloride salt [1]: at least approximately five to six times faster; Media Dissolution Times, medium 3 [1]: 24 s; dissolution of a sweetening amount in refrigerated lemonade [1]: completely dissolve in refrigerated lemonade without stirring; degradation in shelf life stability tests ([3]; about 85° for about 15 days or 70° for about 15 days at 100 percent humidity): less degradation than the hydrochloride salt; cake sweetness, panel taste testing [4]: approximately equal to that of sugar; sweetener recovery [5]: about 34%; more dipeptide sweetener in cake than a cake baked with the hydrochloride salt ([5]; typical thermal stability cake test): about 50%"
"COC(=O)[C@H](Cc1ccccc1)NC(=O)[C@@H](N)CC(=O)O.Cl [B, aspartylphenylalanine methyl ester hydrochloride] (H-Asp-Phe-OMe)",90 s,2%,8.5%,"melted, light-brown",44.7%,77.7%,.25%,93.6%,.36%,75.1%,62.1%,4.0%,57.3%,1.6%,46.0%,3.2%,80.2%,at least 45%,120 s,52 s,"Media Dissolution Times, medium 3 [1]: 94 s; dissolution of a sweetening amount in refrigerated lemonade [1]: require significant time and stirring to dissolve; HPLC Assay (% composition) AP, 6.8 days ([3]; 70°, 100 percent humidity): .33%; HPLC Assay (% composition) DKP, 14.7 days ([3]; 70°, 100 percent humidity): .60%; HPLC Assay (% composition) AP, 6.8 days ([3]; 85° C., atmospheric humidity): 1.1%; sweetener recovery [5]: about 25%"
"COC(=O)[C@H](Cc1ccccc1)NC(=O)[C@@H](N)CC(=O)O.O=S(=O)(O)O [C, aspartylphenylalanine methyl ester bisulfate] (H-Asp-Phe-OMe)",330 s,62.8%,78.2%,melted colorless,89.2%,,,,,,,,,,,,,≤ 85%,,,
